Laboratory results reported in patent US20240174695A1, “Spirocycle Containing Bicyclic Heteroaryl Compounds” (Protego Biopharma, Inc., priority 2022, published 2024).

system: Recombinant amyloidogenic full length light chain protein WIL-FL T46L; experiment: Differential Scanning Fluorimetry Assay (thermal shift assay); type: binding; conditions: Thermal Shift Protein Stability Kit (Biotium), 96-well plates; protein and compounds incubated at RT for 30 min before adding the dye; also: test concentration or dose not given here
Method: Differential Scanning Fluorimetry Assay
The stabilization effects the compounds have on the immunoglobulin light chain protein were quantitively measured using a thermal shift assay. Recombinant amyloidogenic full length light chain protein WIL-FL T46L was produced in E. coli, purified, and used in the assay. The Thermal Shift Protein Stability Kit from Biotium was used and the assay was done in 96-well plates following the manufacturer's instructions. The protein and compounds were incubated at RT for 30 min before adding the dye and subjected to the thermal shift assay. The thermal stability (Tm) of each sample was then determined using standard curve fitting methods and compared to vehicle. Data are expressed as temperature shift: [Tm]compound−[Tm]vehicle.
Results • 0-0.5° C.=* • >0.5-1° C.=** • >1-1.5° C.=*** • >1.5-2.5° C.=**** • >2.5° C.=*****

**Q.** `Cc1cc(OCC2(c3ccccc3)CC2)cn2nc(C(O)CN3CC4(CCN(c5nc(F)ccc5N)CC4)NC3=O)nc12` (stereo not drawn) [Compound 53] was tested. Which “DSF temperature shift: [Tm]compound−[Tm]vehicle” value (“DSF temperature shift” below) did it give?
**A.** The value was “**** (>1.5-2.5° C.=****)”.

**Q.** Which “DSF temperature shift” value does the source give for `Cc1cc(OCC2(c3ccccc3)CC2)cn2nc(C(O)CN3CC4(CCN(c5cc(F)ncn5)CC4)NC3=O)nc12` (stereo not drawn) [Compound 59] here?
**A.** Its value is “**** (>1.5-2.5° C.=****)”.

**Q.** For `Cc1ncc(N2CCC3(CC2)CN(CCc2nc4c(C)cc(OC[C@H](C)c5ccccc5)cn4n2)C(=O)N3)s1` [Compound 107], which “DSF temperature shift” value is on record?
**A.** The value was “**** (>1.5-2.5° C.=****)”.

**Q.** With `Cc1cc(N2CC3(CN(CC(O)c4nc5c(C)cc(OC[C@H](C)c6ccccc6)cn5n4)C(=O)N3)C2)cc(O)n1` (stereo partly drawn) [Compound 16] as the compound, how does the “DSF temperature shift” value read?
**A.** The value was “***** (>2.5° C.=*****)”.

**Q.** `Cc1c(CCN2C(=O)NC3(CCN(c4nccn5ccnc45)CC3)C2=O)nc2cc(O[C@H](C)c3ccccc3)ccn12` [Compound 14, 8-(Imidazo[1,2-a]pyrazin-8-yl)-3-(2-(3-methyl-7-(1-phenylethoxy)imidazo[1,2-a]pyridin-2-yl)ethyl)-1,3,8-triazaspiro[4.5]decane-2,4-dione] was tested. Which “DSF temperature shift” value did it give?
**A.** The value was “** (>0.5-1° C.=**)”.

**Q.** For `Cc1cc(OC[C@H](C)c2ccccc2)cn2nc(CCN3CC4(CCN(c5cccnc5C(F)(F)F)CC4)NC3=O)nc12` [Compound 104], which “DSF temperature shift” value is on record?
**A.** The value was “** (>0.5-1° C.=**)”.

**Q.** `Cc1cc(OC[C@H](C)c2ccccc2)cn2nc(CCN3CC4(CCN(c5ccc(C#N)cn5)CC4)NC3=O)nc12` [Compound 100] was tested. Which “DSF temperature shift” value did it give?
**A.** Its value is “**** (>1.5-2.5° C.=****)”.

**Q.** How did the “DSF temperature shift” value turn out when `Cc1cc(OCC2(c3ccccc3)CC2)cn2nc(C(O)CN3CC4(CCN(c5nccn6cncc56)CC4)NC3=O)nc12` (stereo not drawn) [Compound 57] was run?
**A.** Its value is “***** (>2.5° C.=*****)”.

**Q.** How did the “DSF temperature shift” value turn out when `COc1cc(N2CCC3(CC2)CN(CCc2nc4c(C)cc(OC[C@H](C)c5ccccc5)cn4n2)C(=O)N3)ccn1` [Compound 143] was run?
**A.** Its value is “**** (>1.5-2.5° C.=****)”.

**Q.** How did the “DSF temperature shift” value turn out when `Cc1cc(OC[C@@H](C)c2ccccc2)cn2nc(CCN3CC4(CCN(c5nccn6cncc56)CC4)NC3=O)nc12` [Compound 12] was run?
**A.** The value was “***** (>2.5° C.=*****)”.

**Q.** `Cc1cc(OC[C@H](C)c2ccccc2)cn2nc(C(O)CN3CC4(CCN(c5nccn6cnnc56)CC4)NC3=O)nc12` (stereo partly drawn) [Compound 76] was tested. Which “DSF temperature shift” value did it give?
**A.** The value was “***** (>2.5° C.=*****)”.

**Q.** For `Cc1cc(OC[C@H](C)c2ccccc2)cn2nc(C(O)CN3CC4(CCN(c5ccnc(O)c5)C4)NC3=O)nc12` (stereo partly drawn) [Compound 73], which “DSF temperature shift” value is on record?
**A.** The value was “*** (>1-1.5° C.=***)”.

**Q.** With `Cc1cc(OC[C@H](C)c2ccccc2)cn2nc(C(O)CN3CC4(CN(c5ccnc(C(=O)O)c5)C4)NC3=O)nc12` (stereo partly drawn) [Compound 80] as the compound, how does the “DSF temperature shift” value read?
**A.** Its value is “***** (>2.5° C.=*****)”.

**Q.** `Cc1cc(OCC2(c3ccccc3)CC2)cn2nc(C(O)CN3CC4(CCN(C(=O)Cn5nnnc5C)CC4)NC3=O)nc12` (stereo not drawn) [Compound 34] was tested. Which “DSF temperature shift” value did it give?
**A.** Its value is “**** (>1.5-2.5° C.=****)”.

**Q.** `Cc1nc(N2CCC3(CC2)CN(CCc2nc4c(C)cc(OC[C@H](C)c5ccccc5)cn4n2)C(=O)N3)ns1` [Compound 124] was tested. Which “DSF temperature shift” value did it give?
**A.** The value was “**** (>1.5-2.5° C.=****)”.

**Q.** How did the “DSF temperature shift” value turn out when `Cc1cc(OC[C@H](C)c2ccccc2)cn2nc(C(O)CN3CC4(CCN(C(=O)Cc5ncnn5C)CC4)NC3=O)nc12` (stereo partly drawn) [Compound 70] was run?
**A.** Its value is “**** (>1.5-2.5° C.=****)”.

**Q.** `Cc1cc(OC[C@H](C)c2ccccc2)cn2nc(C(O)CN3CC4(CN(c5ccnc(S(C)(=N)=O)c5)C4)NC3=O)nc12` (stereo partly drawn) [Compound 82] was tested. Which “DSF temperature shift” value did it give?
**A.** Its value is “**** (>1.5-2.5° C.=****)”.

**Q.** With `Cc1cc(OC[C@H](C)c2ccccc2)cn2nc(CCN3CC4(CCN(C(=O)C5(c6ccccn6)CC5)CC4)NC3=O)nc12` [Compound 90] as the compound, how does the “DSF temperature shift” value read?
**A.** Its value is “*** (>1-1.5° C.=***)”.

**Q.** For `Cc1cc(OCC2(c3ccccc3)CC2)cn2nc(C(O)CN3CC4(CCN(c5ncccn5)CC4)NC3=O)nc12` (stereo not drawn) [Compound 56], which “DSF temperature shift” value is on record?
**A.** The value was “***** (>2.5° C.=*****)”.

**Q.** How did the “DSF temperature shift” value turn out when `Cc1cc(N2CC[C@@](C)(c3ccccc3)C2)cn2nc(CCN3CC4(CN(c5ccnc(O)c5)C4)NC3=O)nc12` [Compound 27] was run?
**A.** The value was “***** (>2.5° C.=*****)”.

**Q.** With `Cc1cc(OCC2(c3ccccc3)CC2)cn2nc(C(O)CN3CC4(CCN(c5ccc(F)nc5)CC4)NC3=O)nc12` (stereo not drawn) [Compound 42] as the compound, how does the “DSF temperature shift” value read?
**A.** Its value is “**** (>1.5-2.5° C.=****)”.

**Q.** How did the “DSF temperature shift” value turn out when `Cc1cc(OC[C@H](C)c2ccccc2)cn2nc(CCN3CC4(CCN(c5ncccn5)CC4)NC3=O)nc12` [Compound 115] was run?
**A.** Its value is “**** (>1.5-2.5° C.=****)”.

**Q.** How did the “DSF temperature shift” value turn out when `Cc1noc(N2CCC3(CC2)CN(CCc2nc4c(C)cc(OC[C@H](C)c5ccccc5)cn4n2)C(=O)N3)n1` [Compound 108] was run?
**A.** The value was “***** (>2.5° C.=*****)”.

**Q.** For `Cc1cc(OC[C@H](C)c2ccccc2)cn2nc(C(O)CN3CC4(CN(c5nccn6cnnc56)C4)NC3=O)nc12` (stereo partly drawn) [Compound 88], which “DSF temperature shift” value is on record?
**A.** Its value is “***** (>2.5° C.=*****)”.

**Q.** How did the “DSF temperature shift” value turn out when `COC(=O)c1cccc(N2CC3(CN(CCc4nc5c(C)cc(OC[C@H](C)c6ccccc6)cn5n4)C(=O)N3)C2)n1` [Compound 135] was run?
**A.** The value was “***** (>2.5° C.=*****)”.

**Q.** Which “DSF temperature shift” value does the source give for `COc1ncccc1N1CCC2(CC1)CN(CCc1nc3c(C)cc(OC[C@H](C)c4ccccc4)cn3n1)C(=O)N2` [Compound 139] here?
**A.** Its value is “*** (>1-1.5° C.=***)”.

**Q.** For `Cc1cc(OC[C@H](C)c2ccccc2)cn2nc(CCN3CC4(CCN(c5ncc(F)cn5)CC4)NC3=O)nc12` [Compound 113], which “DSF temperature shift” value is on record?
**A.** The value was “***** (>2.5° C.=*****)”.

**Q.** How did the “DSF temperature shift” value turn out when `Cc1cc(OCC2(c3ccccc3)CC2)cn2nc(C(O)CN3CC4(CCN(C(=O)c5nncn5C)CC4)NC3=O)nc12` (stereo not drawn) [Compound 30, 3-(2-hydroxy-2-(8-methyl-6-((1-phenylcyclopropyl)methoxy)-[1,2,4]triazolo[1,5-a]pyridin-2-yl)ethyl)-8-(4-methyl-4H-1,2,4-triazole-3-carbonyl)-1,3,8-triazaspiro[4.5]decan-2-one] was run?
**A.** The value was “**** (>1.5-2.5° C.=****)”.

**Q.** For `Cc1nnc(N2CCC3(CC2)CN(CCc2nc4c(C)cc(OC[C@H](C)c5ccccc5)cn4n2)C(=O)N3)s1` [Compound 122], which “DSF temperature shift” value is on record?
**A.** Its value is “**** (>1.5-2.5° C.=****)”.

**Q.** With `Cc1cc(OC[C@H](C)c2ccccc2)cn2nc(C(O)CN3CC4(CN(c5ccnc(O)c5)C4)OC3=O)nc12` (stereo partly drawn) [Compound 81] as the compound, how does the “DSF temperature shift” value read?
**A.** The value was “***** (>2.5° C.=*****)”.

**Q.** `Cc1cc(OCC2(c3ccccc3)CC2)cn2nc(C(O)CN3CC4(CCN(c5ncc(C(=O)O)n6ccnc56)CC4)NC3=O)nc12` (stereo not drawn) [Compound 54] was tested. Which “DSF temperature shift” value did it give?
**A.** The value was “**** (>1.5-2.5° C.=****)”.

**Q.** With `Cc1cc(OCC2(c3ccccc3)CC2)cn2nc(C(O)CN3CC4(CCN(c5ccc(N)c(F)n5)CC4)NC3=O)nc12` (stereo not drawn) [Compound 52] as the compound, how does the “DSF temperature shift” value read?
**A.** Its value is “***** (>2.5° C.=*****)”.

**Q.** How did the “DSF temperature shift” value turn out when `COc1ccc(N2CCC3(CC2)CN(CCc2nc4c(C)cc(OC[C@H](C)c5ccccc5)cn4n2)C(=O)N3)c(C)n1` [Compound 141] was run?
**A.** Its value is “** (>0.5-1° C.=**)”.

**Q.** Which “DSF temperature shift” value does the source give for `Cc1cc(OC[C@H](C)c2ccccc2)cn2nc(C(C)CN3CC4(CN(c5ccnc(O)c5)C4)NC3=O)nc12` (stereo partly drawn) [Compound 68, 2-(2-hydroxy-4-pyridyl)-7-[2-[8-methyl-6-[(2R)-2-phenylpropoxy]-[1,2,4]triazolo[1,5-a]pyridin-2-yl]propyl]-2,5,7-triazaspiro[3.4]octan-6-one] here?
**A.** The value was “**** (>1.5-2.5° C.=****)”.

**Q.** Which “DSF temperature shift” value does the source give for `Cc1cc(OC[C@H](C)c2ccccc2)cn2nc(CCN3CC4(CCN(c5nccn6cnnc56)CC4)OC3=O)nc12` [Compound 116, (R)-8-([1,2,4]triazolo[4,3-a]pyrazin-8-yl)-3-(2-(8-methyl-6-(2-phenylpropoxy)-[1,2,4]triazolo[1,5-a]pyridin-2-yl)ethyl)-1-oxa-3,8-diazaspiro[4.5]decan-2-one] here?
**A.** Its value is “**** (>1.5-2.5° C.=****)”.

**Q.** How did the “DSF temperature shift” value turn out when `CC[C@]1(c2ccccc2)CCN(c2cc(C)c3nc(CCN4CC5(CCN(c6nccn7cnnc67)CC5)NC4=O)nn3c2)C1` [Compound 8] was run?
**A.** The value was “***** (>2.5° C.=*****)”.

**Q.** How did the “DSF temperature shift” value turn out when `Cc1cc(OCC2(c3ccccc3)CC2)cn2nc(C(O)CN3CC4(CCN(C(=O)Cc5nnc[nH]5)CC4)NC3=O)nc12` (stereo not drawn) [Compound 32] was run?
**A.** The value was “**** (>1.5-2.5° C.=****)”.

**Q.** With `Cc1cc(N2CCC(C)(c3ccccc3)C2)cn2nc(CCCN3CC4(CCN(c5nccn6ccnc56)CC4)NC3=O)nc12` (stereo not drawn) [Compound 4] as the compound, how does the “DSF temperature shift” value read?
**A.** Its value is “***** (>2.5° C.=*****)”.

**Q.** How did the “DSF temperature shift” value turn out when `Cc1cc(OCC(C)c2ccccc2)cn2nc(CCN3CC4(CCN(c5nccn6cnnc56)CC4)NC3=O)nc12` (stereo not drawn) [Compound 13] was run?
**A.** Its value is “***** (>2.5° C.=*****)”.

**Q.** With `Cc1nsc(N2CCC3(CC2)CN(CC(O)c2nc4c(C)cc(OCC5(c6ccccc6)CC5)cn4n2)C(=O)N3)n1` (stereo not drawn) [Compound 51] as the compound, how does the “DSF temperature shift” value read?
**A.** Its value is “***** (>2.5° C.=*****)”.

**Q.** With `Cc1cc(OCC2(c3ccccc3)CC2)cn2nc(C(O)CN3CC4(CCN(c5ccc(F)nn5)CC4)NC3=O)nc12` (stereo not drawn) [Compound 43] as the compound, how does the “DSF temperature shift” value read?
**A.** The value was “**** (>1.5-2.5° C.=****)”.

**Q.** Which “DSF temperature shift” value does the source give for `Cc1c(O)ncnc1N1CC2(CN(CC(O)c3nc4c(C)cc(OC[C@H](C)c5ccccc5)cn4n3)C(=O)N2)C1` (stereo partly drawn) [Compound 89] here?
**A.** The value was “***** (>2.5° C.=*****)”.
